From patent US10052320B2, “Substituted quinoxalines as FGFR kinase inhibitors” (ASTEX THERAPEUTICS LIMITED, priority 2011, dated 2018)
Read-outs that look alike come from different tables or passages of the source.

Key:
[1] = system: Ba/F3-FGFR1-transfected cells in the presence of 10 ng/ml murine IL3; experiment: Ba/F3-FGFR1 (plus IL3) cellular proliferation counterscreen, Alamar Blue; format: cell-based; conditions: Mus musculus
Procedure, shortened: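 Proliferation is estimated from Alamar Blue fluorescence after cells grow for one day with test compound in 10% FBS medium at 37 °C, with 4 h dye incubation before reading.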

KDR (h) (VEGFR2) = KDR (h) (VEGFR2) (Homo sapiens, UniProt P35968); experiment: KDR (VEGFR2) (enzymatic assay), TR-FRET; format: biochemical
Sequence of KDR (h) (VEGFR2) (P35968 20-1356): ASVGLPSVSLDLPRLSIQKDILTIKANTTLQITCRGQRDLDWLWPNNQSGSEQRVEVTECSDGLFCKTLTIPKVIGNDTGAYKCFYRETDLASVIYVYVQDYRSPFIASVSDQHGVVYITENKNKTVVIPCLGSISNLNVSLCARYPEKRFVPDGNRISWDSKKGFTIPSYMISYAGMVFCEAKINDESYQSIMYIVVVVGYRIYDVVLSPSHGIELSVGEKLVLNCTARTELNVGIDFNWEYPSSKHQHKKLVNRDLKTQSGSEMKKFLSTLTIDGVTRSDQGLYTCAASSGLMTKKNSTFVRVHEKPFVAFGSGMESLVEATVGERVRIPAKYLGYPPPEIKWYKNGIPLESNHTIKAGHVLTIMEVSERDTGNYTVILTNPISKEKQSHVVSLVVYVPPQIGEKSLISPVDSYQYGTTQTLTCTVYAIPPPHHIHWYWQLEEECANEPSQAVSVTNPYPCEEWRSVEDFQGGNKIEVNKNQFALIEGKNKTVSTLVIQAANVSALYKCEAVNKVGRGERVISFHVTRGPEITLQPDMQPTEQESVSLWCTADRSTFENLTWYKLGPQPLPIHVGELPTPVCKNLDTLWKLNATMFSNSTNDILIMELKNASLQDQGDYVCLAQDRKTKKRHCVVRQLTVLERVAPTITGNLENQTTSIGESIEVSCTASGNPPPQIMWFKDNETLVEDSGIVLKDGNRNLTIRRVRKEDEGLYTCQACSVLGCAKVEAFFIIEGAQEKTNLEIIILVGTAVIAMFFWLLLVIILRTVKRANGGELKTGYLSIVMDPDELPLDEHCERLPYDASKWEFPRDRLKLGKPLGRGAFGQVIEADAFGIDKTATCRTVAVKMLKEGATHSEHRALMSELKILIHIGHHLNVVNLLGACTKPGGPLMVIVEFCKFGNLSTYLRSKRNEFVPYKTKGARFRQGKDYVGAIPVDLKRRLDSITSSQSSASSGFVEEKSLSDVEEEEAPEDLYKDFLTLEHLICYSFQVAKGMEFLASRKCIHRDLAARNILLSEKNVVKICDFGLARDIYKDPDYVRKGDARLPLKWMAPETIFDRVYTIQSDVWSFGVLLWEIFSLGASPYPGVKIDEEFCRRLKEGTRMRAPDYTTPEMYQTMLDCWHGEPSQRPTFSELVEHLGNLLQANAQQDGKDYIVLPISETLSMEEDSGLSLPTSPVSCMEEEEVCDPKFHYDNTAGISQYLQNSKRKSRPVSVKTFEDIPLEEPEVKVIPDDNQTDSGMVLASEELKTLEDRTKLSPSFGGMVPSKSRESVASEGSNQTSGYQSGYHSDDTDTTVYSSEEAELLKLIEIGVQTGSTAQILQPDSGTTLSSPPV
Procedure, shortened: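 Low-ATP (3 μM) TR-FRET kinase assay using 500 nM Btn-Flt3 peptide and 150 ng/ml enzyme, run 2 h at room temperature with 6 mM MnCl2 and 0.1 mM Na3VO4. Signal from Eu-anti-P-Tyr/SA-XL-665 is recorded in RFU.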

[2] = target: T1, Ba/F3-Flt3-transfected cells (Homo sapiens, UniProt P36888, cells depend on it, form not given); experiment: Ba/F3-Flt3 (minus IL3) cellular proliferation assay, Alamar Blue; format: cell-based
T1 sequence (P36888 1-993): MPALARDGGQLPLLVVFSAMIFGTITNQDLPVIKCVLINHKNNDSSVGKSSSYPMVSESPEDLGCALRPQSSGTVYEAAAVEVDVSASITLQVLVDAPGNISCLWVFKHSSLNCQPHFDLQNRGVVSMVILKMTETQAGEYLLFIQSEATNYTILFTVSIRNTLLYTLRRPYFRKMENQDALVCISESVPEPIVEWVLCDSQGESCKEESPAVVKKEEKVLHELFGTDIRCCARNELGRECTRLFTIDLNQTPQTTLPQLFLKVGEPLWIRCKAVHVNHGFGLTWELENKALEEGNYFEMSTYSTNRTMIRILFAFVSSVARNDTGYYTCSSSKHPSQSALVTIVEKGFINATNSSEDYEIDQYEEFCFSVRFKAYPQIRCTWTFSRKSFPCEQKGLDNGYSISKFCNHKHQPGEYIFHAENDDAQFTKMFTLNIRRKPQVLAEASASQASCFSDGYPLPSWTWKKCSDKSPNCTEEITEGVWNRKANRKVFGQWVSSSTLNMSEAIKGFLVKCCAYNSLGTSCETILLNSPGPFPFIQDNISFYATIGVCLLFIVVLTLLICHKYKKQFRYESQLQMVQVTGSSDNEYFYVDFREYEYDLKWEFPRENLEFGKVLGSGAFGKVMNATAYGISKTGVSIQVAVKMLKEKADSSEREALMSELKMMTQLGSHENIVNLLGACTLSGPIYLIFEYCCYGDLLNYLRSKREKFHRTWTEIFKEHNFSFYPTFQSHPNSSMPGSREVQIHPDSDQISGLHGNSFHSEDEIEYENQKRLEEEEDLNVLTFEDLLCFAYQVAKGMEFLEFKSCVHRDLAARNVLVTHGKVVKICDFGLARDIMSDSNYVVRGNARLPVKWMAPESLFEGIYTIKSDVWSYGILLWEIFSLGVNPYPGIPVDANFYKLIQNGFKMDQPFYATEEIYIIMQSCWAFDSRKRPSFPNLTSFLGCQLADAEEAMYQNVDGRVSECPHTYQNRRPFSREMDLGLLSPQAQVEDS

[3] = plus IL3, 384 well, read-out: BAF3-FGFR 1 (PLUS IL3) 384 well pIC50 (converted)
[4] = plus IL3, 96 well, read-out: BAF3-FGFR 1 (PLUS IL3) 96 well pIC50 (converted)

Compound | IC50 [1, 3] [µM] | IC50 (KDR (h) (VEGFR2)) [nM] | BAF3-FLT3 (MIN IL3) 384 well pIC50 ([2]; minus IL3) | BAF3-FLT3 (MIN IL3) 96 well pIC50 ([2]; minus IL3, 96 well) | BAF3-FLT3 (MIN IL3) 384 well pIC50 ([2]; minus IL3, 384 well) | IC50 [1, 4] [µM] | BAF3-FLT3 (MIN IL3) 96 well pIC50 ([2]; minus IL3) | melting point [°C]
COc1cc(OC)cc(N(CC(OC(C)=O)C(F)(F)F)c2ccc3ncc(-c4cccnc4)nc3c2)c1 (single isomer, unassigned) [Compound 45] | > 10 | > 1000 | <5 | – | – | – | – | –
COCCCN(c1cc(OC)cc(OC)c1)c1ccc2ncc(-c3ccn(C)c3)nc2c1 [Compound 3] | > 10 | 126 | 5.07 | – | – | – | – | –
COc1cc(OC)cc(N(CCNC(C)C)c2ccc3ncc(-c4ccn(C)c4)nc3c2)c1 [Compound 8] | > 10 | 20 | 5.2 | – | – | – | – | –
COc1cc(OC)cc(N(CCNC(C)C)c2ccc3ncc(-c4cccnc4)nc3c2)c1 [Compound 10] | > 10 | 295 | ~5.01 | – | – | – | – | –
COc1cc(OC)cc(N(CC2CC2)c2ccc3ncc(-c4ccc5c(ccn5C)c4)nc3c2)c1 [Compound 20] | > 10 | > 10000 | – | <5 | <5 | – | – | –
COc1cc(OC)cc(N(CC2CC2)c2ccc3ncc(-n4ccnc4C)nc3c2)c1 [Compound 32] | > 10 | > 1000 | <5 | – | – | > 10 | <5 | –
COc1cc(OC)cc(N(CC2CC2)c2ccc3ncc(-c4cc[nH]c4)nc3c2)c1 [Compound 36] | > 10 | 676 | <5 | – | – | > 10 | <5 | –
COc1cc(OC)cc(N(Cc2cccc(CN)n2)c2ccc3ncc(-c4ccc(N)nc4)nc3c2)c1 [Compound 51] | > 10 | 309 | 5.27 | – | – | – | – | –
COc1cc(OC)cc(N(CC2CC2)c2ccc3ncc(-c4ccn[nH]4)nc3c2)c1 [Compound 58] | > 10 | > 1000 | <5 | – | – | > 10 | <5 | –
CCOC(=O)c1ncn(-c2cnc3ccc(N(CC4CC4)c4cc(OC)cc(OC)c4)cc3n2)c1C [Compound 65] | > 10 | > 1000 | <5 | – | – | > 10 | <5 | –
COc1cc(OC)cc(N(CC(O)CO)c2ccc3ncc(-c4ccc(N)nc4)nc3c2)c1 (stereo not shown) [Compound 74] | > 10 | 309 | <5 | – | – | – | – | –
CNCCN(c1cc(OC)cc(OC)c1)c1ccc2ncc(-c3ccc(NC(=O)OC(C)(C)C)nc3)nc2c1 [Compound 81] | – | 209 | 5.76 | – | – | – | – | 182
COc1cc(OC)cc(N(CC2CC2)c2ccc3ncc(-c4nnn(C)n4)nc3c2)c1 [Compound 82] | – | > 1000 | <5 | – | – | – | <5 | 143
COc1cc(OC)cc(N(CC2CC2)c2ccc3ncc(C(=O)NCCN4CCOCC4)nc3c2)c1 [Compound 96] | – | > 1000 | <5 | – | – | – | <5 | 112
COc1cc(OC)cc(N(CC2CC2)c2ccc3ncc(-c4nccs4)nc3c2)c1 [Compound 97] | – | > 10000 | <5 | – | – | – | <5 | 148
COc1cc(OC)cc(N(CC2CC2)c2ccc3ncc(Nc4nccs4)nc3c2)c1 [Compound 98] | – | > 1000 | <5 | – | – | – | <5 | 213
COc1cc(OC)cc(N(CC2CC2)c2ccc3ncc(C(=O)NCc4ccc(F)cc4)nc3c2)c1 [Compound 101] | – | > 1000 | <5 | – | – | – | <5 | 140
COc1cc(OC)cc(N(CC2CC2)c2ccc3ncc(Nc4nncs4)nc3c2)c1 [Compound 102] | – | > 1000 | <5 | – | – | – | ~5 | 260
COc1cc(OC)cc(N(CC2CC2)c2ccc3ncc(-c4cccn4C)nc3c2)c1 [Compound 103] | – | > 1000 | <5 | – | – | – | 5.17 | 141
COc1cc(OC)cc(N(CC2CC2)c2ccc3ncc(-n4cnc(CO)c4)nc3c2)c1 [Compound 105] | – | 741 | <5 | – | – | – | – | 154
COc1cc(OC)cc(N(CCO)c2ccc3ncc(-c4ccc(N)nc4)nc3c2)c1 [Compound 106] | – | 178 | <5.025 | – | – | – | – | 160
CNC(=O)c1cc(-c2cnc3ccc(N(CCN4CCCC4CO)c4cc(OC)cc(OC)c4)cc3n2)ccn1 (stereo not shown) [Compound 109] | – | 200 | <5 | – | – | – | – | 172
CNC(=O)c1cc(-c2cnc3ccc(N(CCNCC(F)(F)F)c4cc(OC)cc(OC)c4)cc3n2)ccn1 [Compound 113] | – | > 1000 | <5 | – | – | – | – | 98
COc1cc(OC)cc(N(CCCO)c2ccc3ncc(-c4ccc(C)nc4)nc3c2)c1 [Compound 115] | – | 309 | – | – | – | – | – | 166
COc1cc(OC)cc(N(CCCO)c2ccc3ncc(-c4ccc(F)nc4)nc3c2)c1 [Compound 117] | > 10 | 912 | – | – | – | – | – | –
COc1cc(OC)cc(N(CCNC(C)C)c2ccc3ncc(-c4ccccc4)nc3c2)c1 [Compound 121] | – | 49 | ~5.34 | – | – | – | – | –
CNC(=O)c1cc(-c2cnc3ccc(N(CCCNCC(F)(F)F)c4cc(OC)cc(OC)c4)cc3n2)ccn1 [Compound 122] | > 10 | > 1000 | <5 | – | – | – | – | –
COc1cc(OC)cc(N(CCCO)c2ccc3ncc(-c4ccc(N5CCOCC5)nc4)nc3c2)c1 [Compound 124] | > 10 | 102 | <5 | – | – | – | – | –
COc1cc(OC)cc(N(CCCNCC(F)(F)F)c2ccc3ncc(-c4ccc(N(C)C(=O)OC(C)(C)C)nc4)nc3c2)c1 [Compound 127] | > 10 | > 1000 | <5 | – | – | – | – | –
